Assay results as given in patent US20220096538A1, “PHARMACEUTICAL COMPOSITIONS AND METHODS FOR PREVENTION AND/OR TREATMENT OF INFLAMMATION” (priority 2020, published 2022).
Values joined by “and” are separate entries in the source; they are usually repeats but may differ in a detail not shown here. Identical values can stand only once.

Key:
[1] = cited from earlier work; for Approximate Equivalent Dose: equivalent to 0.75 mg dexamethasone
[2] = system: LPS-GalN induced liver injury; experiment: LPS-GalN model, treatment 2 h post LPS-GalN: liver histopathological score
[3] = system: LPS-GalN induced acute lung injury; experiment: LPS-GalN model, treatment 2 h post LPS-GalN: lung histopathological (ALI) score; conditions: for Mean±SE ALI score: scale 0 to 4
[4] = system: LPS-GalN challenged mice; experiment: LPS-GalN model of fatal cytokine storm and sepsis, treatment 2 h post LPS-GalN: 24 h survival
[5] = low dose RJX, standard dose DEX, alone or combined, 2 h post LPS-GalN
[6] = DEX 0.1 mg/kg i.p. 2 h post LPS-GalN, n=6
[7] = DEX 0.6 mg/kg i.p. 2 h post LPS-GalN, n=6
[8] = DEX 6.0 mg/kg i.p. 2 h post LPS-GalN, n=6
[9] = RJX 0.7 ml/kg, DEX 0.6 mg/kg, alone or combined, 2 h post LPS-GalN

In the case of `C[C@]12CCC(=O)C=C1CC[C@@H]1[C@@H]2[C@@H](O)C[C@@]2(C)[C@H]1CC[C@]2(O)C(=O)CO` [Hydrocortisone], the “Approximate Equivalent Dose” value [1] is listed as 20 mg.

In the case of `C[C@]12C=CC(=O)C=C1CC[C@H]1[C@@H]3C[C@@H](O)[C@](O)(C(=O)CO)[C@@]3(C)C[C@H](O)[C@@]12F` [Triamcinolone], the “Approximate Equivalent Dose” value [1] is listed as 4 mg.

With `C[C@@H]1C[C@H]2[C@@H]3CCC4=CC(=O)C=C[C@]4(C)[C@@]3(F)[C@@H](O)C[C@]2(C)[C@@]1(O)C(=O)CO` [DEX, dexamethasone] the “histopathological liver damage score (Mean±SE)” value ([2]; DEX 0.1 mg/kg) was 3.3±0.2, the “histopathological liver damage score (Mean±SE)” value ([2]; DEX 0.6 mg/kg) was 2.7±0.2 and the liver score median ([2]; DEX 0.6 mg/kg) was 3. For the same compound, the “histopathological liver damage score (Mean±SE)” value ([2]; DEX 6.0 mg/kg) was 2.3±0.2, the liver score median ([2]; DEX 6.0 mg/kg) was 3 and the “liver histopathological scores, range” value ([2]; DEX (0.1)) was 3-4. The “Liver Histopathological Score: ≥3 (severe damage or more), percent of mice” value [2, 5] was 50%, the “lung histopathological ALI score, Median” value ([3]; DEX 0.1 mg/kg) was 3.5 and the “lung histopathological ALI scores, range” value ([3]; DEX 0.1 mg/kg) was 3-4. The “Mean±SE ALI score” value ([3]; DEX 0.1 mg/kg) was 3.5±0.2, the “lung histopathological ALI score, Median” value ([3]; DEX 0.6 mg/kg) was 3 and the “lung histopathological ALI scores, range” value ([3]; DEX 0.6 mg/kg) was 2-4. The “Mean±SE ALI score” value ([3]; DEX 0.6 mg/kg) was 2.8±0.3, the “lung histopathological ALI score, Median” value ([3]; DEX 6.0 mg/kg) was 2 and the “lung histopathological ALI scores, range” value ([3]; DEX 6.0 mg/kg) was 1-3. For the same compound, the “Mean±SE ALI score” value ([3]; DEX 6.0 mg/kg) was 1.8±0.3, the “Lung Histopathological Score: ≥3 (severe damage or more), percent of mice” value [3, 5] was 50% and the “ALI score of a representative mouse” value ([3]; single dose at 2 hours post-LPS-GalN, sacrificed at 24 hours, low dose RJX, high dose DEX or both) was 2. For the same compound, the Censored [4, 6] was 1, the Events [4, 6] was 5 and the “Median (survival)” value [4, 6] was 5.1 h. For the same compound, the “Proportion (events; 24-h mortality)” value [4, 6] was 83.3%, the Censored [4, 7] was 3 and the Events [4, 7] was 3. The “Median (survival)” value [4, 7] was 15.0 h, the “Proportion (events; mortality)” value [4, 7] was 50.0% and the Censored [4, 8] was 4. For the same compound, the Events [4, 8] was 2, the “Proportion (events; mortality)” value [4, 8] was 33.3% and the Censored ([4]; RJX 0.7 ml/kg (6-fold diluted 4.2 mL/kg), DEX 0.6 mg/kg, alone or combined, 2 h post LPS-GalN) was 5. For the same compound, the Events [4, 9] was 5, the “Median (survival)” value [4, 9] was 17.6 h and the “Proportion (events)” value [4, 9] was 50.0%.

For `C[C@]12CCC(=O)C=C1CC[C@@H]1[C@@H]2C(=O)C[C@@]2(C)[C@H]1CC[C@]2(O)C(=O)CO` [Cortisone], the “Approximate Equivalent Dose” value [1] is given as 25 mg.

In the case of `C[C@]12C=CC(=O)C=C1CC[C@@H]1[C@@H]2[C@@H](O)C[C@@]2(C)[C@H]1CC[C@]2(O)C(=O)CO` [Prednisolone], the “Approximate Equivalent Dose” value [1] is listed as 5 mg.

In the case of `C[C@]12CCC(=O)C=C1CC[C@H]1[C@@H]3CC[C@](O)(C(=O)CO)[C@@]3(C)C[C@H](O)[C@@]12F` [Fludrocortisone], the “Anticipated Half-life” value [1] is given as 12 to 26 h and 12 to 36 h.
